Measured values: patent US10980765B2, “Isothiocyanatostilbenes as a novel method and product for treating cancer” (BOARD OF SUPERVISORS OF LOUISIANA STATE UNIVERSITY AND …, priority 2015, dated 2021)
Each block holds one molecule with its values, some of them ahead of it.

Tests used:
wild-type c-Met = wild-type c-Met (Homo sapiens, UniProt P08581); experiment: Phosphorylation inhibition assay (Z′-LYTE Kinase Assay-Tyr6 Peptide), wild-type c-Met; type: biochemical
Experimental: (§1) Western blot was used to analyze pMet expression. […] Western blot was used to analyze the indicated proteins.
Phosphorylation inhibition assay: Z′-LYTE™ Kinase Assay-Tyr6 Peptide kit (Invitrogen) was used to assess the ability of tested compounds to inhibit c-Met phosphorylation. […] After 1 hour incubation at room temperature, 10 μl development solution containing site-specific protease was added to each well. Incubation was continued for 1 hour. The reaction was then stopped, and the fluorescent signal ratio of 445 nm (coumarin)/520 nm (fluorescein) was determined on a plate reader (BioTek FLx800™), which reflects the peptide substrate cleavage status and/or the kinase inhibitory activity in the reaction. […] The IC50 value for each compound was calculated by nonlinear regression of log concentration versus % c-Met phosphorylation ±S.E.M., implemented in GraphPad Prism version 5.0 (GraphPad Software, CA, USA).

c-Met [1] = target: T1, c-Met (Homo sapiens, UniProt P08581); experiment: Western blot of pMet in c-Met amplified H1993 lung cancer cells without HGF; type: cell-based; set-up: endogenous in cells; settings: 5 μM compound; no HGF, constitutive c-Met activation
Experimental: as §1
H1993 cells have c-Met amplification such that they have high levels of pMet, even in the absence of HGF, due to constitutive c-Met dimerization and autophosphorylation.
(§2) Western blot analysis: Cells were grown to ˜70% confluency prior to treatment. Cells were serum-starved in serum-free media for 30 minutes prior to treatment in complete media or serum-free media for the indicated times. Cell lysates were collected in Laemmli (125 mM Tris, 4% SDS, 0.01% bromophenol blue, 30% sucrose) containing 0.5% β-mercaptoethanol and boiled ˜8 minutes. Primary antibodies include: phospho-c-Met (Y1234/1235), phospho-Akt (S473), pEGFR […], pIGF-IRβ (Y1135/1136) (Cell Signaling Technology; Beverly, Mass.); α-actin (Sigma-Aldrich), c-Met (C-28) (Life Technologies). Secondary antibodies include: horseradish peroxidase-conjugated anti-rabbit and anti-mouse (GE Healthcare; Pittsburgh, Pa.). ECL 2 was used for chemiluminescent detection (Thermo Scientific; Rockford, Ill.). Densitometry was calculated using ImageJ (NIH).

c-Met [2] = target: T1, c-Met; experiment: Western blot of c-Met activation (phospho-c-Met) by HGF in cancer cell lines; type: cell-based; set-up: endogenous in cells; host or cells: DU145, PC3, MDA-MB-231, HCC1806
Experimental: as §1
(§3) Western blot was used to analyze the indicated proteins.
as §3, §2

DU145 cells [3] = experiment: Scattering assay; type: cell-based; settings: 4 μM DIDS or 25 μM H2DIDS
Experimental: (§4) Cells were fixed and stained for actin. Representative images are shown. […] Data are shown as mean±S.E.M.; n=3.
Cells were fixed and stained for actin. Representative images are shown.
Scattering assay: DU145 cells were grown to ˜50% confluency. […] Cells were fixed with 4% paraformaldehyde and stained with Oregon Green 488 phalloidin (Invitrogen; Carlsbad, Calif.). Images were acquired on an Eclipse TE300 inverted microscope (Nikon; Tokyo, Japan) with NIS Elements version 4.13.04 software. Presented images were taken using a 10× objective.

DU145 spheroids = experiment: 3D spheroid proliferation; type: cell-based; settings: 33 ng/mL HGF, Matrigel, 72 hours
Experimental: Data are shown as the percent change in growth from T=0 to T=72 hours. For each of the six independent variables in each bar graph, a representative image at the 72 hour time point is shown. The six corresponding images below each respective bar graph
3D spheroid proliferation: Prior to seeding, cells were incubated with 2.5 ng/μl CellTracker Red (Life Technologies) in complete DMEM lacking Phenol Red for 5 minutes at room temperature then centrifuged at 1000 RPM for 5 minutes. […] The mixture of cells, treatments, and Matrigel in complete media was seeded at 2000 cells/well in a 96 well plate. The plate was centrifuged at 1000 RPM for 3 minutes to collect the cells into the bottom of the plate. Spheroid growth was imaged for up to 80 hours and analyzed for average red object area using the IncuCyte™ ZOOM software. Data are shown as percent change in spheroid growth between TO and […] with HGF normalized to 100% change in growth. Images were captured by the IncuCyte™ ZOOM imaging system and representative 10× images are shown.

DU145 cells [4] = experiment: Wound healing; type: cell-based
Experimental: as §4
(§5) For invasion (FIGS. 4C and 4D), wounded cells were overlaid with Matrigel diluted 1:5 in serum-free media; n=3.
(§6) Wound healing and invasion: DU145 cells were grown to ˜100% confluency prior to wounding with the IncuCyte™ WoundMaker™ (Essen Bioscience; Ann Arbor, Mich.) and washed once with complete media. For invasion, cells were covered with Matrigel diluted 1:5 in serum-free RPMI following wounding. […] Images were taken every 4 hours with the IncuCyte™ ZOOM imaging system (Essen Bioscience). Quadruplicate replicates were used in each experiment. Data are presented as percent wound density ±standard error of the mean (S.E.M.).

EGFR = target: T2, EGFR (Homo sapiens, UniProt P00533); experiment: Western blot of EGFR activation by EGF in DU145 cells; type: cell-based; settings: 4 μM DIDS or 25 μM H2DIDS; DU145, 100 ng/ml EGF 20 min
T2 construct: endogenous in cells; host or cells: DU145
Experimental: as §2

IGFR = target: T3, IGFR (Homo sapiens, UniProt P08069); experiment: Western blot of IGFR activation by IGF in DU145 cells; type: cell-based; settings: 4 μM DIDS or 25 μM H2DIDS; DU145, 100 ng/ml IGF 20 min
T3 construct: endogenous in cells; host or cells: DU145
Experimental: as §2

DU145 cells [5] = experiment: Invasion through Matrigel; type: cell-based; settings: indicated concentrations; 33 ng/mL HGF; Matrigel 1:5
Experimental: as §5, §6

Cells = experiment: 2D proliferation (Cell Titer Blue); type: cell-based; settings: 24-72 hours
Experimental: A TO timepoint was also measured. For each timepoint, cells were exposed to Cell Titer Blue reagent (Promega) for 1 hour at 37° C. 5% CO2. Experiments were performed with quadruplicate replicates. Fluorescence was measured using a BioTek Synergy 4 plate reader with Gen5 software.

Sequence of wild-type c-Met (P08581 25-1390): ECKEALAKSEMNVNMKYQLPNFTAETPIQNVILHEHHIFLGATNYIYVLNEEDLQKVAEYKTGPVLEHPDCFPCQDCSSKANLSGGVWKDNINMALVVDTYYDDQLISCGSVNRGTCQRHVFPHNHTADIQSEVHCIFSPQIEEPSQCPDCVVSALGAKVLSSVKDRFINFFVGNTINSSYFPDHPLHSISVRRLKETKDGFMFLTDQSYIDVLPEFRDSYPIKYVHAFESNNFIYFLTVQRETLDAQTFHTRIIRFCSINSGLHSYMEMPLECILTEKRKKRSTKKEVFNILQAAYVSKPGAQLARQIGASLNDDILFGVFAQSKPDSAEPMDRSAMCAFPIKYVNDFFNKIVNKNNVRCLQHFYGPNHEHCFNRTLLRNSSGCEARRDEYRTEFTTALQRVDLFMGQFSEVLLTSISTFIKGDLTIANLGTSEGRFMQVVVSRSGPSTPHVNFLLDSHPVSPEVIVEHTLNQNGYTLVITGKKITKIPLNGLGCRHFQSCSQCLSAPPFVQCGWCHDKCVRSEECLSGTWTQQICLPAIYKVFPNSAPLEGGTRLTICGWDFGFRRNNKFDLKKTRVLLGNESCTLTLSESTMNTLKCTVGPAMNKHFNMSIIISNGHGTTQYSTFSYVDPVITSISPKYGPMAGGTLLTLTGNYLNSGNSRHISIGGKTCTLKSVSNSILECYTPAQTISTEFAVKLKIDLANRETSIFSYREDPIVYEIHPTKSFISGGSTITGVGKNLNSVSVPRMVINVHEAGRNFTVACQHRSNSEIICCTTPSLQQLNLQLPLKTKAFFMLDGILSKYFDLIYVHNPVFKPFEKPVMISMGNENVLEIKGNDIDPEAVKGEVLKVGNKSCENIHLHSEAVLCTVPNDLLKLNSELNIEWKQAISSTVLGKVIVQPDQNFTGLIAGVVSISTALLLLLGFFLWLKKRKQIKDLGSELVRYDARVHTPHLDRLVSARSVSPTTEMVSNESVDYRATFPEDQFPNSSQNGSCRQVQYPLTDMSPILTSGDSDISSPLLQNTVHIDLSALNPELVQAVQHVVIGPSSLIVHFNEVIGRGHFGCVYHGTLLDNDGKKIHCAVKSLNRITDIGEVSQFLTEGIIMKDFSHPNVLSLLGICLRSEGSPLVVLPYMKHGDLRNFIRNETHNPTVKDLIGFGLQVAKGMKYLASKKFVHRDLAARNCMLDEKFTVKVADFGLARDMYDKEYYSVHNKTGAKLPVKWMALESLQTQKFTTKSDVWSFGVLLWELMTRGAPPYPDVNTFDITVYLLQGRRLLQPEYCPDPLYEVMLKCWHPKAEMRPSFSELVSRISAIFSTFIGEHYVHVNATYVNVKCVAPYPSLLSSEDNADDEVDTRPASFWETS
T1 sequence (P08581 25-1390): as above
T3 sequence (P08069 31-1367): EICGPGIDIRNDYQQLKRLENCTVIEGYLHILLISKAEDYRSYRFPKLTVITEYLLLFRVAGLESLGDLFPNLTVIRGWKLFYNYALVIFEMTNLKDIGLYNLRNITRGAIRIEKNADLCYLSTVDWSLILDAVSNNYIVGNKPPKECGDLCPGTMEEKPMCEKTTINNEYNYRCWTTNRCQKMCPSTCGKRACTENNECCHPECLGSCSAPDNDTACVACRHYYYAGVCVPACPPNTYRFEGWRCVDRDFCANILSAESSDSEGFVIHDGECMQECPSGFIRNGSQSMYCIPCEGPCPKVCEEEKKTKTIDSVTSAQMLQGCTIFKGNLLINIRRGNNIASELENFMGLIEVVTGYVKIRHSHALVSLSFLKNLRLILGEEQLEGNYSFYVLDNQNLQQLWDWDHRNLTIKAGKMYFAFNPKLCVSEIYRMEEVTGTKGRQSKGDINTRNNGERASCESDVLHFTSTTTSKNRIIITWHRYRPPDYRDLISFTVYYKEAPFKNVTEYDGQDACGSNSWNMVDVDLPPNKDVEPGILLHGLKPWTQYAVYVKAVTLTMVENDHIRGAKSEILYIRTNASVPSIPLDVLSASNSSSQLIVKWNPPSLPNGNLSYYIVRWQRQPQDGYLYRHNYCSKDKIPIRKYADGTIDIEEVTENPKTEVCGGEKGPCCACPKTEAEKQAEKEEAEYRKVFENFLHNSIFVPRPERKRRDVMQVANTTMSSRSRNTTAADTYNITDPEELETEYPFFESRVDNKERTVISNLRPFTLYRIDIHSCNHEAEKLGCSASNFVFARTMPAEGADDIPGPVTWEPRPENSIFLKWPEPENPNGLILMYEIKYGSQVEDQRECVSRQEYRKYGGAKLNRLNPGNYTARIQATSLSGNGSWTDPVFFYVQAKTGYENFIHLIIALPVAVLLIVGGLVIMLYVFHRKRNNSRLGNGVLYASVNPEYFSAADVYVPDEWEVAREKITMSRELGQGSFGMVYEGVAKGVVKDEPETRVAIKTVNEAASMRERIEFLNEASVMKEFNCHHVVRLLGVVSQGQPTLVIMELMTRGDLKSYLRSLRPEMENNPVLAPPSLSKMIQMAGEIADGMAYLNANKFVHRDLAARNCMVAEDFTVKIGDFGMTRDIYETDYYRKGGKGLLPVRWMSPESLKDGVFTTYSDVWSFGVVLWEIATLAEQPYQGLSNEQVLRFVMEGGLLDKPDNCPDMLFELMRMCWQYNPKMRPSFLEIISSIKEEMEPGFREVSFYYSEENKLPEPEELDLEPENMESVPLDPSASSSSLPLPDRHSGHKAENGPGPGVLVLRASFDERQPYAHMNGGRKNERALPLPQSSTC

- reduction of c-Met phosphorylation (wild-type c-Met; 500 nM compound, kinase assay): ~70%
- pMet levels in H1993 cells (c-Met [1]): ameliorated pMet levels
SMILES: Cc1[nH]c(/C=C2\C(=O)Nc3ccc(S(=O)(=O)N(C)c4cccc(Cl)c4)cc32)c(C)c1C(=O)N1CCN(C)CC1 [SU11274, reference compound]

SMILES: CC(=O)Nc1ccc(C=Cc2ccc(N=C=S)cc2S(=O)(=O)O)c(S(=O)(=O)O)c1 [SITS, 4-acetamido-4′-isothiocyanatostilbene-2,2′-disulfonic acid]
- inhibition at 250 µM (c-Met [2]; DU-145, 250 μM compound, DU145 cells, 33 ng/ml HGF 20 min, serum-free): ~90%

SMILES: O=[N+]([O-])c1ccc(C=Cc2ccc([N+](=O)[O-])cc2S(=O)(=O)O)c(S(=O)(=O)O)c1 [DNDS, 4,4′-dinitrostilbene-2,2′-disulfonic acid]
- inhibition at 2000 µM (c-Met [2]; DU-145, read-out: inhibition of c-Met): ~90%

SMILES: O=S(=O)(O)c1cc(N=C=S)ccc1CCc1ccc(N=C=S)cc1S(=O)(=O)O [H2DIDS, 4,4′-Diisothiocyanatodihydrostilbene-2,2′-disulfonic acid]
- HGF-induced cell scattering (DU145 cells [3]; 33 ng/ml HGF overnight): able to reduce HGF-induced
- EGF-induced cell scattering (DU145 cells [3]; 100 ng/ml EGF overnight): not EGF-induced
- lowest concentration with some inhibitory effects on HGF-induced spheroid growth (DU145 spheroids): 40 nM
- decrease of HGF-induced DU145 spheroid growth (DU145 spheroids; 5 μM compound): ~60%
- reduction of c-Met activation (c-Met [2]; 8 μM compound, DU145 cells, 33 ng/ml HGF 20 min, serum-free, Western blot densitometry): ~90%
- effective concentrations for reducing c-Met activation in 10% FBS (c-Met [2]; DU145 cells, 33 ng/ml HGF 20 min, 10% FBS RPMI, compared with serum-free): slightly higher effective concentrations
- c-Met inhibitory effective doses (c-Met [2]; multiple cancer cell lines (summary)): low micromolar range
- IC50, wild-type c-Met (wild-type c-Met; cell-free kinase assay, 200 μM ATP): low micromolar range
- IC50 (wild-type c-Met; cell-free kinase assay, 200 μM ATP, read-out: IC50, wild-type c-Met): 3.6 µM
- HGF-induced wound healing (DU145 cells [4]; 4 μM DIDS or 25 μM H2DIDS, 33 ng/ml HGF): significantly reduced
- EGF-mediated wound healing (DU145 cells [4]; 4 μM DIDS or 25 μM H2DIDS, 100 ng/ml EGF): minimal effects
- HGF-induced wound healing, dose response (DU145 cells [4]; indicated concentrations, 33 ng/mL HGF): reduce HGF-induced wound healing in a dose response manner
- pMet levels in H1993 cells (c-Met [1]): much less significant effects
- EGFR activation (EGFR): do not significantly reduce
- IGFR activation (IGFR): do not significantly reduce
- HGF-induced invasion through Matrigel (DU145 cells [5]): inhibited HGF-induced invasion through Matrigel in a dose-dependent manner
- proliferation in complete media in 2D assay (Cells; complete media): minimal effects
- serum-free proliferation in 2D assay (Cells; serum-free media): minimal effects
